Usually Ki stands for a dissociation constant, usually derived from enzyme kinetics or from competition with a known ligand.

Values after ≈ are worked out from the molar mass of the structure shown. Read-outs that look alike come from different tables or passages of the source.

The values below come from US6833372B2, “Non-peptide GnRH agents, Pharmaceutical compositions, and methods for their use” (Pfizer, Inc., priority 2002, dated 2004).

Data set [1] has as its target T1, GGH3 cells (GH3 cells stably transfected with the rat GnRH receptor) (Rattus norvegicus, UniProt P30969).
T1 construct: host or cells: GH3 cells stably transfected (GGH3), whole cells
T1 sequence (P30969 1-327): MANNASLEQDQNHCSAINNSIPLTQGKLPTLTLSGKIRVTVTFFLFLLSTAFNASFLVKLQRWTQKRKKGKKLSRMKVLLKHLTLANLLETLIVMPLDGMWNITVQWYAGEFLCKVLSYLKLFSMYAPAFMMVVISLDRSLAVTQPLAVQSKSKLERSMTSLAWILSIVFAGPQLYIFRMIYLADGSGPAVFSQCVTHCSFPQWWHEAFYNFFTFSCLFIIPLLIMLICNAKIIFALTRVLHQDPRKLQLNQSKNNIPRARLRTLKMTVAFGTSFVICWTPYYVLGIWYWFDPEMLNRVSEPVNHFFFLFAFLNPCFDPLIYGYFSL
Briefly: Effect of compounds on 125I-GnRH-A binding to GGH3 cells (competition radioligand binding, whole cells). As to conditions: on ice 2 hr.
Description: Cell Culture. GGH3 cells (Dr. William Chin, Harvard Medical School, Boston, Mass.) are grown in low glucose Dulbecco's modified Eagle's medium (DMEM) containing 100 U/mL penicillin/streptomycin, 0.6 g/L G418 and 10% heat-inactivated FBS.
The reaction mixture is vortexed and incubated for 1 min at room temperature. Two; ml of 0.5 M acetic acid is added to the reaction tube and the mixture is added to a C18 Sep-Pak cartridge: The cartridge is washed with subsequent washes of 5 ml H2O and 5 ml 0.5M acetic acid and then eluted with 5×1 ml of 60% CH3CN/40% 0.5M acetic acid. The eluate is diluted with 3× volume of HPLC buffer A (0.1% TFA in H2O) and loaded onto a C18 column. The iodinated product is eluted over 20-25 min with a gradient of 25-100% CH3CN containing 0.1% TFA. The radioactive fractions (750 μl/fraction) are collected into clean polypropylene tubes containing 100 μl of 10% BSA. Fractions are assessed for biological activity by radioligand binding.
Reactions are performed on ice for 2 hr and stopped by the addition of 2 ml of ice-cold PBS wash buffer (50 mM NaPO4, 0.9% NaCl, 2 mM MgCl2, and 0.02% NaN3, pH 7.4) and rapid filtration onto GF/C filters presoaked with 0.05% polyethylenimine utilizing a Brandel cell harvester. Filters are counted on a gamma counter. […]

Data set [2] in a line: In vitro metabolism: disappearance of parent compound in rat liver microsomes (male, female). The class given is in vitro ADME. To be noted: 5 uM compound, 30 minutes 37° C. In short, it runs like this: (§1)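 Microsomes from human, rat (male, female), dog and monkey liver incubated with 5 uM compound, 0.5 mg/ml protein and 2 mM NADPH in 50 mM K phosphate, pH 7.4, for 30 min at 37° C. Reaction stopped with acetonitrile; parent compound remaining measured by LC-MS.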
On the technique in general: Microsomes from liver hold many membrane-bound enzymes, among them those of drug oxidation.

The nature of data set [3]: In vitro metabolism: disappearance of parent compound in dog liver microsomes. In kind it is in vitro ADME. To be noted: 5 uM compound, 30 minutes 37° C. In a few lines:
as §1

In a further data set the target is T2, human GnRH receptors (Homo sapiens, UniProt P30968).
T2 construct: expressed in transfected cells; host or cells: HEK 293 cells, stably transfected; membranes
T2 sequence (P30968 1-328): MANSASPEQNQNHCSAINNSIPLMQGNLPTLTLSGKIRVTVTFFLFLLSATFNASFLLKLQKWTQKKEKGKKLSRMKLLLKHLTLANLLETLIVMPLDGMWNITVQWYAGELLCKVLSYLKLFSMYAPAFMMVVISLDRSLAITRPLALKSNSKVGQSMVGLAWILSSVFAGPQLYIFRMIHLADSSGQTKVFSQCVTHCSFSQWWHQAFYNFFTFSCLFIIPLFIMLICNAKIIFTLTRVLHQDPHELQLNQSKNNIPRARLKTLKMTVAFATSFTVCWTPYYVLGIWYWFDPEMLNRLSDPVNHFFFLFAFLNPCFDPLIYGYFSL
Briefly: Radioligand binding: inhibition of 125I-GnRH-A binding to human GnRH receptor membranes. To be noted: HEK 293 cell membranes. In a few lines: (§2)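 Membranes from rat pituitaries, or HEK 293 cells stably expressing mouse or human receptor, incubated 1 hour at room temperature with ~0.04-0.06 nM radioligand (HEPES pH 7.4, EDTA, MgCl2, BSA) and competitor at 0.1-10,000 nM. Bound ligand collected by GF/C filtration and counted; Ki derived from IC50 by Cheng-Prusoff.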

A further data set in a line: Rat plasma % remain. The class given is in vitro ADME.
A short description of data set [4]: In vitro metabolism: disappearance of parent compound in human liver microsomes. In kind it is in vitro ADME. To be noted: 5 uM compound, 0.5 mg/ml protein, 2 mM NADPH, 30 minutes 37° C. In short, it runs like this:
as §1

Another data set concerns the target T3, rat GnRH receptor (Rattus norvegicus, UniProt P30969).
T3 construct: or rat pituitaries (Pel Freez Biologicals, Rogers, Ark.) were homogenized; tissue Pel Freez Biologicals; host or cells: rat pituitaries (membrane preparation)
T3 sequence (P30969 1-327): T1 sequence (P30969 1-327)
Description: Radioligand binding: inhibition of 125I-GnRH-A binding to rat GnRH receptor (rat pituitary membranes). To be noted: read-out: Ki (nM), Inhibition Binding of 125I-GnRH-A to GnRH Receptors. In short, it runs like this: as §2

In a further data set the target is T4, mouse GnRH receptors (Mus musculus, UniProt Q01776).
T4 construct: expressed in transfected cells; host or cells: HEK 293 cells, stably transfected; membranes
T4 sequence (Q01776 1-327): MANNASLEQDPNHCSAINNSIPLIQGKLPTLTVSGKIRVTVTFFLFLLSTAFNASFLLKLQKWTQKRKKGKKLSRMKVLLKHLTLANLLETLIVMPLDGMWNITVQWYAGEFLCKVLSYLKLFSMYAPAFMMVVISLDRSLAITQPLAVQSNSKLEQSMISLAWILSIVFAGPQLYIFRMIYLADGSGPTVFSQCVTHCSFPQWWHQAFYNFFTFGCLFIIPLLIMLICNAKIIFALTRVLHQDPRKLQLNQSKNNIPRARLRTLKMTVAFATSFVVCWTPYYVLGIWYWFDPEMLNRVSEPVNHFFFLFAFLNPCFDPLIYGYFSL
Briefly: Radioligand binding: inhibition of 125I-GnRH-A binding to mouse GnRH receptor membranes. As to conditions: HEK 293 cell membranes. The protocol:
HEK 293 cells stably transfected with mouse or human GnRH receptors as described above were grown in Dulbecco's high-glucose, modified Eagle's medium (DMEM) supplemented with 0.2% G418, 10% fetal bovine serum (FBS) and 100 U/mL penicillin/streptomycin. GH3 cells stably transfected with the rat GnRH receptor (GGH3) were provided by Dr. William Chin (Harvard Medical School, Boston, Mass.). These cells have been extensively characterized previously (Kaiser et al., 1997). The cells were grown in low glucose DMEM containing: 100U/mL penicillin/streptomycin, 0.6% G418 and 10% heat-inactivated FBS.
HEK 293 cells containing mouse or human receptors, or rat pituitaries (Pel Freez Biologicals, Rogers, Ark.) were homogenized in buffer A containing: 50 mM Tris (pH 7.4), 0.32 M sucrose, 2 mM EGTA, 1 mM PMSF, 5 μg/ml aprotinen, 5 μg/ml Pepstatin A, and 1 μg/ml leupeptin. Homogenized cells were centrifuged at 4° C. at 20,000×g for 25 minutes, re-suspended in buffer A and re-centrifuged at 4° C. at 20,000×g for an additional 25 minutes. Total membrane protein was determined with a BCA kit (Pierce, Rockford, Ill.). Membranes were stored at −70° C. at a final membrane protein concentration of approximately 5 mg/ml.
The radioiodinated agonist analog of GnRH, [des-Gly^10,D-Ala^6]GnRH ethylamide (^125I-GnRH-A), was used as the radioligand. […] The reaction mixture was vortexed and incubated for 1 minute at room temperature. After one minute, the mixture was vortexed and allowed to incubate for an additional minute. 2 ml of 0.5 M acetic acid/1% BSA was added to the reaction tube and the mixture was added to a C18 Sep-Pak cartridge. The cartridge was washed with subsequent washes of 5 ml H2O and 5 ml 0.5 M acetic acid and then eluted with 5×1 ml of 60% CH3CN/40% 0.5 M acetic acid. The eluate was diluted with 3× volume of HPLC buffer A (0.1% TFA in H2O) and loaded onto a C18 column. The iodinated product was eluted over 20-25 min with a gradient of 25-100% CH3CN containing 0.1% TFA. The radioactive fractions (750 μl/fraction) were collected into clean polypropylene tubes containing 100 μl of 10% BSA. Fractions were assessed for biological activity by radioligand binding. Specific activity of the radioligand was approximately 2200 Ci/mmol.
Membranes were diluted to 0.01-0.5 mg/ml (depending upon the species of receptor) with assay buffer containing 50 mM HEPES (pH 7.4), 1 mM EDTA, 2.5 mM MgCl2, and 0.1% BSA. Membranes (diluted to utilize similar receptor numbers between assays) were incubated with approximately 0.04-0.06 nM ^125I-GnRH-A in the presence or absence of competing agents (0.1-10,000 nM) in a total volume of 200 μl in 96-well polypropylene plates for 1 hour at room temperature. Assays were stopped by rapid filtration onto 96-well GF/C filters soaked in 0.1% polyethylenimine (PEI) utilizing a Packard 96-well cell harvester. Filters were washed three times with ice-cold PBS (50 mM NaPO4, 0.9% NaCl, 2 mM MgCl2, and 0.02% NaN3, pH 7.4). 35 μl of scintillation cocktail was added to each filter well and filters were counted on a Packard Topcount. Control dose-response curves were generated to GnRH (0.1 nM-100 nM) in each competition binding experiment. Ki values were calculated from IC50 values according to Cheng et al., Biochemical Pharmacol. 22: 3099-3108, 1973. [formula]

A short description of data set [5]: In vitro metabolism: disappearance of parent compound in monkey liver microsomes. As to conditions: 5 uM compound, 30 minutes 37° C. In kind it is in vitro ADME. In a few lines:
as §1

A short description of data set [6]: Solubility at pH2 and pH6. The class given is physicochemical.

In the case of “Ac-D-2-Nal-p-chloro-D-Phe-β-(3-pyridyl)-D-Ala-Ser-Lys(nicotinoyl)-D-Lys(nicotinoyl)-Leu-Lys(isopropyl)-Pro-D-Ala-NH2 [Antide]”, the “ability to inhibit 125I-GnRH-A binding to GGH3 cells” value in [1] was “blocked”.
As to “pGlu-His-Trp-Ser-Tyr-Gly-Leu-Arg-Pro-Gly-NH2 [GnRH]”, in [1], the “ability to inhibit 125I-GnRH-A binding to GGH3 cells” value is recorded as “blocked”.
`CNc1nc(OC)c(NC(=O)c2ccc(Cc3cc4c(cc3C)C(C)(C)CCC4(C)C)o2)c(OC)n1` [Example B1, 5-(3,5,5,8,8-Pentamethyl-5,6,7,8-tetrahydro-naphthalen-2-ylmethyl)-furan-2-carboxylic Acid (4,6-dimethoxy-2-methylamino-pyrimidin-5-yl)-amide]: the “Fem. Rat (FR) % rem. 30′” value in [2] (female rat liver microsomes) was 94%. Further, in data set [2] (male rat liver microsomes), the “Male Rat (MR) % rem. 30′” value stood at 1%. Moreover, in data set [3], the “Dog % rem. 30′” value is on record as 2%. Moreover, the Ki was 1 nM at human GnRH receptors, 0.79 nM at rat GnRH receptor and 0.75 nM on mouse GnRH receptors. In the data set “Rat plasma % remain”, the “Rat plasma % remain” value was 100%. Also, the “Human % rem. 30′” value in data set [4] amounted to 54%. In addition, the Monkey % rem. in [5] is reported as 0%. In addition, the solubility in [6] (pH 2, simulated gastric fluid, pH2, read-out: Solubility μg/ml pH2) was 1.2 µg/mL (≈ 2.44 µM); in data set [6] (pH 6, aqueous buffer, pH6, read-out: Solubility μg/ml pH6), 0.4 µg/mL (≈ 0.812 µM).
Turning to `COc1nc(NCCN2CCCC2)nc(OC)c1NC(=O)c1ccc(Cc2cc3c(cc2C)C(C)(C)OC3(C)C)o1` [Example D23, N-{4,6-Dimethoxy-2-[(2-pyrrolidin-1-ylethyl)amino]-pyrimidin-5-yl}-5-[(1,1,3,3,6-pentamethyl-1,3-dihydro-2-benzofuran-5-yl)methyl]-2-furamide Acetate], the Ki on human GnRH receptors stood at 1.6 nM; at rat GnRH receptor, 0.92 nM; on mouse GnRH receptors, 1.7 nM.
In the case of `COc1nc(N2CCOCC2)nc(OC)c1NC(=O)c1ccc(Cc2cc3c(cc2C)C(C)(C)CCC3(C)C)o1` [Example B3, 5-(3,5,5,8,8-Pentamethyl-5,6,7,8-tetrahydro-naphthalen-2-ylmethyl)-furan-2-carboxylic Acid (4,6-dimethoxy-2-morpholin-4-yl-pyrimidin-5-yl)-amide], the inhibition constant Ki on human GnRH receptors came to 4.7 nM; at rat GnRH receptor it was 14 nM; at mouse GnRH receptors, 5.3 nM.
